Source: US12637469B2, “1H-pyrazole derivative and application thereof as dual target inhibitor of Syk and VEGFR2” (Ocumension Therapeutics (Suzhou) Co., Ltd., priority 2020, dated 2026)

Columns and labels:
Assay in all cases: Eurofins KinaseProfiler off-target kinase inhibition
Format in all cases: biochemical
CHK1(h) = molecular target: T1, CHK1(h) (Homo sapiens, UniProt O14757)
T1 construct: purchased Eurofins (KinaseProfiler platform)
Experimental: (§1) In order to investigate the specificity of the inhibition of the target by the compound, in this study, the activity and selectivity of test compound 1 on the off-target kinases in related pathways were tested on the Eurofins kinaseProfiler™ platform, and compound screening and analysis were conducted using IC50 value as the indicator.
(§2) Compound 1 was detected for each selected kinase using the standard Eurofins Kinase Profiler™ protocol, which followed the relevant standard operating procedures. The IC50 values of the inhibitory activity of the test compound 1 on 67 kinases including Abl(h), B-Raf(h), BTK(h) and JAK(h) were analyzed.

cSRC(h) = molecular target: T2, cSRC(h) (Homo sapiens, UniProt P12931)
T2 construct: purchased Eurofins (KinaseProfiler platform)
Experimental: as §1, §2

IKKβ(h) = molecular target: T3, IKKβ(h) (Homo sapiens, UniProt O14920)
T3 construct: purchased Eurofins (KinaseProfiler platform)
T3 sequence (O14920 whole entry): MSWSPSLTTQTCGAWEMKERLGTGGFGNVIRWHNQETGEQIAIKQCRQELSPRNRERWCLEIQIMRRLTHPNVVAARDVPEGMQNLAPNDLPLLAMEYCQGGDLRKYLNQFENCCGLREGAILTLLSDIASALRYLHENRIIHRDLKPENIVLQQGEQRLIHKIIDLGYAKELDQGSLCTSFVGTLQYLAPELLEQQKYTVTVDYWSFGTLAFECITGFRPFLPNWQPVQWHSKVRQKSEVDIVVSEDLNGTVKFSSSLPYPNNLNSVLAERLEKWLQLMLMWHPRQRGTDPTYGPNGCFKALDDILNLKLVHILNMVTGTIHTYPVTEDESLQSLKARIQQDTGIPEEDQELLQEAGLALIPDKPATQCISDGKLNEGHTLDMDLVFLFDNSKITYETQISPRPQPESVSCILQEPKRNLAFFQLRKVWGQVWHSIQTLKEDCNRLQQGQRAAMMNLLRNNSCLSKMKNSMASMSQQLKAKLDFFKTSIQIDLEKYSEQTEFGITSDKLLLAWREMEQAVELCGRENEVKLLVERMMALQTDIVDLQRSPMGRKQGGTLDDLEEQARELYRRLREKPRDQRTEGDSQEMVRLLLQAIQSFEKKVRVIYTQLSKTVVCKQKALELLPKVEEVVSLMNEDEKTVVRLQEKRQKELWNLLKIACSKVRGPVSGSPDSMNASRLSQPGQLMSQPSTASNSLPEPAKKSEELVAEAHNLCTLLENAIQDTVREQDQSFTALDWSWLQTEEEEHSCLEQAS
Experimental: as §1, §2

Fyn(h) = molecular target: T4, Fyn(h) (Homo sapiens, UniProt P06241)
T4 construct: purchased Eurofins (KinaseProfiler platform)
Experimental: as §1, §2

Flt3(h) = molecular target: T5, Flt3(h) (Homo sapiens, UniProt P36888)
T5 construct: purchased Eurofins (KinaseProfiler platform)
Experimental: as §1, §2

Aurora-B(h) = molecular target: T6, Aurora-B(h) (Homo sapiens, UniProt Q96GD4)
T6 construct: purchased Eurofins (KinaseProfiler platform)
Experimental: as §1, §2

CDK6/cyclinD3(h) = molecular target: T7, CDK6/cyclinD3(h) (Homo sapiens, UniProt Q00534)
T7 construct: purchased Eurofins (KinaseProfiler platform)
T7 sequence (Q00534 whole entry): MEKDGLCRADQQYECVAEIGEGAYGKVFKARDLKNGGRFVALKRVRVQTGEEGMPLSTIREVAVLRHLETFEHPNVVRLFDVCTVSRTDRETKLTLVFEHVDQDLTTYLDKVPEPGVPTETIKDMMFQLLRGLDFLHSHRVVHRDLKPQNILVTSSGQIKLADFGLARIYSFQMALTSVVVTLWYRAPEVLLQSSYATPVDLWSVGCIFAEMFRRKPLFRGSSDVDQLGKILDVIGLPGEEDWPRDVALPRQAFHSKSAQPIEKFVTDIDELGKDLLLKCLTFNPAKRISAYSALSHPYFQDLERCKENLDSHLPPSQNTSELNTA
T7 sequence (P30281 whole entry partner): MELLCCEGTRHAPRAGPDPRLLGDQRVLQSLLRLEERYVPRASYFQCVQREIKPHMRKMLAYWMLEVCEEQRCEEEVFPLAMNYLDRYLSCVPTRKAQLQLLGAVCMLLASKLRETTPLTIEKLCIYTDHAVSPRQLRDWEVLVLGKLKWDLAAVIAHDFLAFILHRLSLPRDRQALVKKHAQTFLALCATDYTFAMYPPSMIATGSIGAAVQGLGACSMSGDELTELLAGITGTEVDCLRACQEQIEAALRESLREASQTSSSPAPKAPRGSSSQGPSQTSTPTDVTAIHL
Experimental: as §1, §2

PKBα(h) = molecular target: T8, PKBα(h) (Homo sapiens, UniProt P31749)
T8 construct: purchased Eurofins (KinaseProfiler platform)
Experimental: as §1, §2

IKKα(h) = molecular target: T9, IKKα(h) (Homo sapiens, UniProt O15111)
T9 construct: purchased Eurofins (KinaseProfiler platform)
Experimental: as §1, §2

MKK4(m) = molecular target: T10, MKK4(m) (Mus musculus, UniProt P47809)
T10 construct: purchased Eurofins (KinaseProfiler service)
Experimental: as §1, §2

BTK(h) = molecular target: T11, BTK(h) (Homo sapiens, UniProt Q06187)
T11 construct: purchased Eurofins (KinaseProfiler platform)
Experimental: as §1, §2

SAPK3(h) = molecular target: T12, SAPK3(h) (Homo sapiens, UniProt P53778)
T12 construct: purchased Eurofins (KinaseProfiler platform)
Experimental: as §1, §2

ErbB2(h) = molecular target: T13, ErbB2(h) (Homo sapiens, UniProt P04626)
T13 construct: purchased Eurofins (KinaseProfiler platform)
Experimental: as §1, §2

JNK1α1(h) = molecular target: T14, JNK1α1(h) (Homo sapiens, UniProt P45983)
T14 construct: purchased Eurofins (KinaseProfiler service)
Experimental: as §1, §2

PKA(h) = molecular target: T15, PKA(h) (Homo sapiens, UniProt P17612)
T15 construct: purchased Eurofins (KinaseProfiler service)
Experimental: as §1, §2

CK1ε(h) = molecular target: T16, CK1ε(h) (Homo sapiens, UniProt P49674)
T16 construct: purchased Eurofins (KinaseProfiler platform)
Experimental: as §1, §2

Abl(h) = molecular target: T17, Abl(h) (Homo sapiens, UniProt P00519)
T17 construct: purchased Eurofins (KinaseProfiler platform)
T17 sequence (P00519 whole entry): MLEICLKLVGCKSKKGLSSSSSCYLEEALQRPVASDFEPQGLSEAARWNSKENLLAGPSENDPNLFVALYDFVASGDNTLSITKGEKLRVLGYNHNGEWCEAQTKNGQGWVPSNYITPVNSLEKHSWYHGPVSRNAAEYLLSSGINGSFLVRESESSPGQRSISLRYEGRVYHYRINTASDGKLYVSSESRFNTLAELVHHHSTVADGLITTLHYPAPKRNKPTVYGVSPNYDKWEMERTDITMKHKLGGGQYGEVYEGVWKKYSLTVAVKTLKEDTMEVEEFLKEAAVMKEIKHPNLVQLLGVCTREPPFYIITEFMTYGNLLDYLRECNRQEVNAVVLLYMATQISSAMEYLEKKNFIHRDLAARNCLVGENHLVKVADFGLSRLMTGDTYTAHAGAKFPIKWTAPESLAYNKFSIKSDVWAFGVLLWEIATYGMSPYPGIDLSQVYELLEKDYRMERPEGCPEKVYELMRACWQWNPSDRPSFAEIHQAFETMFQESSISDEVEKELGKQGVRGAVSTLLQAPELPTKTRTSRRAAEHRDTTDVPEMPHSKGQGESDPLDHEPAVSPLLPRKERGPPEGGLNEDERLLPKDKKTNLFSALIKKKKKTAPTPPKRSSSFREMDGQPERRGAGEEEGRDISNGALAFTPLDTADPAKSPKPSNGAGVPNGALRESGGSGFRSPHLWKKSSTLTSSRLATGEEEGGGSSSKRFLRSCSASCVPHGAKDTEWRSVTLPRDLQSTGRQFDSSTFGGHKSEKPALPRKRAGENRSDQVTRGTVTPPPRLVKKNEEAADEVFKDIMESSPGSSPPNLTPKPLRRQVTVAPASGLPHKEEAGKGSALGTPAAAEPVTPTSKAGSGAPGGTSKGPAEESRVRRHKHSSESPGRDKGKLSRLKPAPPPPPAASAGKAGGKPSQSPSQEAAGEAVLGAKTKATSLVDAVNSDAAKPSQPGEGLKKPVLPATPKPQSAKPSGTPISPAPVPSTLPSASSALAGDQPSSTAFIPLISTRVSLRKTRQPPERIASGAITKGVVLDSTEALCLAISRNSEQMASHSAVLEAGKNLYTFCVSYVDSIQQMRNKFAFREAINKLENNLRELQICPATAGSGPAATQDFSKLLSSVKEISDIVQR
Experimental: as §1, §2

EGFR(h) = molecular target: T18, EGFR(h) (Homo sapiens, UniProt P00533)
T18 construct: purchased Eurofins (KinaseProfiler platform)
Experimental: as §1, §2

TrkA(h) = molecular target: T19, TrkA(h) (Homo sapiens, UniProt P04629)
T19 construct: purchased Eurofins (KinaseProfiler platform)
Experimental: as §1, §2

FGFR3(h) = molecular target: T20, FGFR3(h) (Homo sapiens, UniProt P22607)
T20 construct: purchased Eurofins (KinaseProfiler platform)
T20 sequence (P22607 23-806): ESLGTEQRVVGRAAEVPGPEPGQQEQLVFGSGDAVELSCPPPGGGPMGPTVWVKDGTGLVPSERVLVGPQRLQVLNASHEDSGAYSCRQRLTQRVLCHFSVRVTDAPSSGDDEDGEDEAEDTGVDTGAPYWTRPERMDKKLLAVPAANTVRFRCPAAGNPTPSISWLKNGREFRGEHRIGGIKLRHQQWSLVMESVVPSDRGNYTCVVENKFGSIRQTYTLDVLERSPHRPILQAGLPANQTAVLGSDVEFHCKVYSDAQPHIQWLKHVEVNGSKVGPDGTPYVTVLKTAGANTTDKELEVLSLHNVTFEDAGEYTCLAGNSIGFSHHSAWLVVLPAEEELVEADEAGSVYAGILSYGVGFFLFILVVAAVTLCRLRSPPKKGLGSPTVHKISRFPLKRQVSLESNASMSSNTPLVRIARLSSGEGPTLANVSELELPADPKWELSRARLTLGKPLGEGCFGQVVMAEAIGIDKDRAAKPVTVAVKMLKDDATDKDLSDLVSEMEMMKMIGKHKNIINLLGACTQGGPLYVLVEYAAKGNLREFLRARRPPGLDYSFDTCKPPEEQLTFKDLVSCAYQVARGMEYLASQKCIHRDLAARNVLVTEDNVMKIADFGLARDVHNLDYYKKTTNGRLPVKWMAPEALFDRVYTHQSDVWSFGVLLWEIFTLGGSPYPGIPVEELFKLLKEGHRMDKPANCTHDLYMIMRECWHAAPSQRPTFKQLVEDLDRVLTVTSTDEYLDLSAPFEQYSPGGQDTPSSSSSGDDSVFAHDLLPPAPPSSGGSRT
Experimental: as §1, §2

SAPK2a(h) = molecular target: T21, SAPK2a(h) (Homo sapiens, UniProt Q16539)
T21 construct: purchased Eurofins (KinaseProfiler platform)
Experimental: as §1, §2

MEK2(h) = molecular target: T22, MEK2(h) (Homo sapiens, UniProt P36507)
T22 construct: purchased Eurofins (KinaseProfiler service)
Experimental: as §1, §2

Src(T341M)(h) = molecular target: T23, Src(T341M)(h) (Homo sapiens, UniProt P12931, T341M)
T23 construct: purchased Eurofins (KinaseProfiler platform)
Experimental: as §1, §2

MEK1(h) = molecular target: T24, MEK1(h) (Homo sapiens, UniProt Q02750)
T24 construct: purchased Eurofins (KinaseProfiler service)
Experimental: as §1, §2

Hck(h)activated = molecular target: T25, Hck(h)activated (Homo sapiens, UniProt P08631)
T25 construct: purchased Eurofins (KinaseProfiler service)
Experimental: as §1, §2

FGFR2(h) = molecular target: T26, FGFR2(h) (Homo sapiens, UniProt P21802)
T26 construct: purchased Eurofins (KinaseProfiler service)
Experimental: as §1, §2

Lck(h)activated = molecular target: T27, Lck(h)activated (Homo sapiens, UniProt P06239)
T27 construct: purchased Eurofins (KinaseProfiler service)
Experimental: as §1, §2

Tie2(h) = molecular target: T28, Tie2(h) (Homo sapiens, UniProt Q02763)
T28 construct: purchased Eurofins (KinaseProfiler platform)
T28 sequence (Q02763 23-1124): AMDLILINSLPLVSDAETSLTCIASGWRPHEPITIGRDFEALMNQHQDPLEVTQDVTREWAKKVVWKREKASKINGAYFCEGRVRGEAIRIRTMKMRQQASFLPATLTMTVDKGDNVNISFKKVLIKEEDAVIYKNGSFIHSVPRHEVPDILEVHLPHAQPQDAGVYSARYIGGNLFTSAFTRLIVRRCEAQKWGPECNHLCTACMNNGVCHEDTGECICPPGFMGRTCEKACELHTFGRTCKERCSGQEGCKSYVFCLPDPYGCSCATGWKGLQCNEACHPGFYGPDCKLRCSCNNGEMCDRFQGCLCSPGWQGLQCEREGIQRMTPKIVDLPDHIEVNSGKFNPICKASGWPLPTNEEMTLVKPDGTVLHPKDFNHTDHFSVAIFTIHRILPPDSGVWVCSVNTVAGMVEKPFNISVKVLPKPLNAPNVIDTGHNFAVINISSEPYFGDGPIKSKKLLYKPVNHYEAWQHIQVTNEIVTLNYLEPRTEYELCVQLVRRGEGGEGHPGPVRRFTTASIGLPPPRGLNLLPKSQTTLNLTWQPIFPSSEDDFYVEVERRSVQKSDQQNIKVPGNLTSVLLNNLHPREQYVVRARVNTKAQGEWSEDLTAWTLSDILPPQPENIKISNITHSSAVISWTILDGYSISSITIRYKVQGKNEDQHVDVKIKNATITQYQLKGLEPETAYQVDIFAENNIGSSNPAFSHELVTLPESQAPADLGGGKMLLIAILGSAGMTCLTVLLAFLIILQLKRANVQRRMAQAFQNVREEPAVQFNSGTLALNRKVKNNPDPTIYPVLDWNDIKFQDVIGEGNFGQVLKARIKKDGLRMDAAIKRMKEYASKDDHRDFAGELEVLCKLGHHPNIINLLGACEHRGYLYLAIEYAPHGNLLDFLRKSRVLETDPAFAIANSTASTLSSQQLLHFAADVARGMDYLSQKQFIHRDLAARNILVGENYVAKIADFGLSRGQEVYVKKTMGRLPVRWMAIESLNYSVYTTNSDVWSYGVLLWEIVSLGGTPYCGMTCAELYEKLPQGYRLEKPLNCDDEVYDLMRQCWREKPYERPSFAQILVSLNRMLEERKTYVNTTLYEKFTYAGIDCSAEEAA
Experimental: as §1, §2

Ret(h) = molecular target: T29, Ret(h) (Homo sapiens, UniProt P07949)
T29 construct: purchased Eurofins (KinaseProfiler platform)
Experimental: as §1, §2

SAPK2b(h) = molecular target: T30, SAPK2b(h) (Homo sapiens, UniProt Q15759)
T30 construct: purchased Eurofins (KinaseProfiler platform)
Experimental: as §1, §2

JNK3(h) = molecular target: T31, JNK3(h) (Homo sapiens, UniProt P53779)
T31 construct: purchased Eurofins (KinaseProfiler service)
Experimental: as §1, §2

MAPKAP-K2(h) = molecular target: T32, MAPKAP-K2(h) (Homo sapiens, UniProt P49137)
T32 construct: purchased Eurofins (KinaseProfiler service)
Experimental: as §1, §2

BRK(h) = molecular target: T33, BRK(h) (Homo sapiens, UniProt Q13882)
T33 construct: purchased Eurofins (KinaseProfiler platform)
Experimental: as §1, §2

mTOR/FKBP12(h) = molecular target: T34, mTOR/FKBP12(h) (Homo sapiens, UniProt P42345)
T34 construct: purchased Eurofins (KinaseProfiler service)
Experimental: as §1, §2

ROCK-II(h) = molecular target: T35, ROCK-II(h) (Homo sapiens, UniProt O75116)
T35 construct: purchased Eurofins (KinaseProfiler platform)
Experimental: as §1, §2

TGFBR1(h) = molecular target: T36, TGFBR1(h) (Homo sapiens, UniProt P36897)
T36 construct: purchased Eurofins (KinaseProfiler platform)
Experimental: as §1, §2

TYK2(h) = molecular target: T37, TYK2(h) (Homo sapiens, UniProt P29597)
T37 construct: purchased Eurofins (KinaseProfiler platform)
Experimental: as §1, §2

JAK3(h) = molecular target: T38, JAK3(h) (Homo sapiens, UniProt P52333)
T38 construct: purchased Eurofins (KinaseProfiler service)
Experimental: as §1, §2

MKK6(h) = molecular target: T39, MKK6(h) (Homo sapiens, UniProt P52564)
T39 construct: purchased Eurofins (KinaseProfiler service)
T39 sequence (P52564 whole entry): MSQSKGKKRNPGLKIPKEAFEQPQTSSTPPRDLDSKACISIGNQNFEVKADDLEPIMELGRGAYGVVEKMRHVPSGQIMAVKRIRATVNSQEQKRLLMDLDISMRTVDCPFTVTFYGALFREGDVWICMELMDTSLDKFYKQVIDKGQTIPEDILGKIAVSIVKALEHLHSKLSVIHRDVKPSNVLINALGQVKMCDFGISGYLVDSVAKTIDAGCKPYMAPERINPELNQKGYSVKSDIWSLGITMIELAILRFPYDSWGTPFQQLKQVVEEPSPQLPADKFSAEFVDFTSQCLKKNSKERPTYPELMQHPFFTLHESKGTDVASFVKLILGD
Experimental: as §1, §2

With `c1cn2c(n1)c(Nc1ccc(N3CCOCC3)cc1)nc1ccc(-c3cn[nH]c3)cc12` [Compound 1] the IC50 (CHK1(h)) was > 10000 nM, the IC50 (cSRC(h)) was 367 nM and the IC50 (IKKβ(h)) was > 10000 nM. For the same compound, the IC50 (Fyn(h)) was 373 nM, the IC50 (Flt3(h)) was 12 nM and the IC50 (Aurora-B(h)) was 232 nM. For the same compound, the IC50 (CDK6/cyclinD3(h)) was > 10000 nM, the IC50 (PKBα(h)) was > 10000 nM and the IC50 (IKKα(h)) was 946 nM. For the same compound, the IC50 (MKK4(m)) was > 10000 nM, the IC50 (BTK(h)) was 1040 nM and the IC50 (SAPK3(h)) was > 10000 nM. The IC50 (ErbB2(h)) was > 10000 nM, the IC50 (JNK1α1(h)) was 1170 nM and the IC50 (PKA(h)) was > 10000 nM. The IC50 (CK1ε(h)) was 385 nM, the IC50 (Abl(h)) was 152 nM and the IC50 (EGFR(h)) was > 10000 nM. For the same compound, the IC50 (TrkA(h)) was 112 nM, the IC50 (FGFR3(h)) was > 10000 nM and the IC50 (SAPK2a(h)) was > 10000 nM. The IC50 (MEK2(h)) was > 10000 nM, the IC50 (Src(T341M)(h)) was 1010 nM and the IC50 (MEK1(h)) was > 10000 nM. The IC50 (Hck(h)activated) was 418 nM, the IC50 (FGFR2(h)) was > 10000 nM and the IC50 (Lck(h)activated) was 1310 nM. The IC50 (Tie2(h)) was 2060 nM, the IC50 (Ret(h)) was 756 nM and the IC50 (SAPK2b(h)) was > 10000 nM. For the same compound, the IC50 (JNK3(h)) was 279 nM, the IC50 (MAPKAP-K2(h)) was > 10000 nM and the IC50 (BRK(h)) was 775 nM. The IC50 (mTOR/FKBP12(h)) was > 10000 nM, the IC50 (ROCK-II(h)) was 499 nM and the IC50 (TGFBR1(h)) was > 10000 nM. For the same compound, the IC50 (TYK2(h)) was 117 nM, the IC50 (JAK3(h)) was 550 nM and the IC50 (MKK6(h)) was > 10000 nM.
